Test results taken from patent US12486234B2, “PAPD5 inhibitors and methods of use thereof” (Children's Medical Center Corporation, priority 2019, dated 2025).

Legend:
PAPD5 [1] = target: T1, PAPD5 (Homo sapiens, UniProt Q8NDF8); assay: RNA oligo-adenylation (oligo-extension) inhibition assay with recombinant PAPD5; type: biochemical; parameters: key: minimal activity (0); range from minimal activity (0) to that of compound 1 (+++); range from minimal activity (0) to that of compound 1 (+++); that of compound 1 (+++); settings: qualitative measure of RNA oligo-extension inhibition, relative to compound 1
T1 construct: made in house
Procedure: An in vitro RNA polyadenylation assay using recombinant PAPD5, ATP and an oligonucleotide substrate utilized the following phenomenon: ATP utilization by PAPD5 reads out as a decreased luminescence signal produced by luciferase (KinaseGlo, Promega, Madison, WI).
(§1) Qualitative measure of RNA oligo-extension inhibition for the tested compounds, expressed as range from minimal activity (0) to that of compound 1 (+++), and results of a DSF binding assay (shown as shift in temperature at 100 μM of the compound) are shown in the Table 2 below.

PAPD5 [2] = target: T1, PAPD5; assay: DSF binding assay (shift in temperature); settings: shift in temperature at 100 μM of the compound
Procedure: as §1

T1 sequence (Q8NDF8 68-698 isoform Q8NDF8-5 limits assumed): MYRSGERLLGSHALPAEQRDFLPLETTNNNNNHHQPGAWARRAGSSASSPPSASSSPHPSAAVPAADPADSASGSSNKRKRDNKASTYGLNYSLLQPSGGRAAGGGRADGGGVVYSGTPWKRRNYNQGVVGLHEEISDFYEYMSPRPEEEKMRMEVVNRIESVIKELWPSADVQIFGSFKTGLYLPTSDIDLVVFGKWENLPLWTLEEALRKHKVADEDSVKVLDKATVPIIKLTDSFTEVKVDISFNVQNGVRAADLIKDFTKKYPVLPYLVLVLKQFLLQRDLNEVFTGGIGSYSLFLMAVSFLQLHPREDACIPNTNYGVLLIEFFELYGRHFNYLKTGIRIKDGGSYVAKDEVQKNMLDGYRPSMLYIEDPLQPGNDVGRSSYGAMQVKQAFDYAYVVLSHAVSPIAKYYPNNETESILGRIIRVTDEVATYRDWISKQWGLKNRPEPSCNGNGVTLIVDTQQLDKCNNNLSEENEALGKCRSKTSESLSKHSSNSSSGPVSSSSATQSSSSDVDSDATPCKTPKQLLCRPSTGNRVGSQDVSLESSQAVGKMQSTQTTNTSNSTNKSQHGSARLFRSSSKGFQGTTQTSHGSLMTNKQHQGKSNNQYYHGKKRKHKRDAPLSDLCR

| SMILES | Inhibition of PAPD5 RNA oligo adenylation (PAPD5 [1]) | ΔTm at 100 µM (PAPD5 [2]) [°C] | ΔTm 100 μM (PAPD5 [2]) |
| --- | --- | --- | --- |
| CCOC(=O)c1cnc2ccc(-n3ccc4cc(O)ccc43)cc2c1Nc1ccccc1C(=O)O [Compound 29A, 2-[[3-ethoxycarbonyl-6-(5-hydroxyindol-1-yl)-4-quinolyl]amino]benzoic acid] | +++ | 4.9 | – |
| O=C(O)c1cccnc1Nc1c(C(=O)O)cnc2ccc(OC(F)(F)F)cc12 [Compound 28A, 4-[(3-carboxy-2-pyridyl)amino]-6-(trifluoromethoxy)quinoline-3-carboxylic acid] | + | 5.5 | – |
| CCOC(=O)c1cnc2ccc(OC(F)(F)F)cc2c1Nc1ncccc1C(=O)O [Compound 1A, 2-[[3-ethoxycarbonyl-6-(trifluoromethoxy)-4-quinolyl]amino]pyridine-3-carboxylic acid] | 0 | 0.4 | – |
| CCOC(=O)c1cnc2ccc(OC(F)(F)F)cc2c1Nc1scnc1C(=O)O [Compound 5A, 5-((3-(ethoxycarbonyl)-6-(trifluoromethoxy)quinolin-4-yl)amino)thiazole-4-carboxylic acid] | 0 | 2.3 | – |
| NS(=O)(=O)c1cnc2ccc(Br)cc2c1Nc1ccccc1C(=O)O [Compound 61A, 2-[(6-bromo-3-sulfamoyl-4-quinolyl)amino]benzoic acid] | +++ | 11.1 | – |
| O=C(O)c1ccccc1Nc1c(C(=O)N2CCOCC2)cnc2ccc(OC(F)(F)F)cc12 [Compound 13A, 2-[[3-(morpholine-4-carbonyl)-6-(trifluoromethoxy)-4-quinolyl]amino]benzoic acid] | + | 5.6 | – |
| COCCCOc1cc2ncc(C(=O)N3CCOCC3)c(Nc3ccccc3C(=O)O)c2cc1OC [Compound 53A, 2-[[6-methoxy-7-(3-methoxypropoxy)-3-(morpholine-4-carbonyl)-4-quinolyl]amino]benzoic acid] | + | 5.2 | – |
| O=C(O)c1ccccc1Nc1c(S(=O)(=O)N2CCOCC2)cnc2ccc(Cl)cc12 [Compound 80A, 2-[(6-chloro-3-morpholinosulfonyl-4-quinolyl)amino]benzoic acid] | +++ | 16.4 | – |
| CCOC(=O)c1cnc2ccc(OC(F)(F)F)cc2c1Nc1ccccc1-c1nn[nH]n1 [Compound 10A, ethyl 4-[2-(2H-tetrazol-5-yl)anilino]-6-(trifluoromethoxy)quinoline-3-carboxylate] | + | 1 | – |
| O=C(O)c1ccccc1Nc1c(C(=O)N2CCNCC2)cnc2ccc(OC(F)(F)F)cc12 [Compound 14A, 2-[[3-(piperazine-1-carbonyl)-6-(trifluoromethoxy)-4-quinolyl]amino]benzoic acid] | ++ | 1.7 | – |
| O=C(O)c1ccccc1Nc1c(S(=O)(=O)N2CCOCC2)cnc2ccc(Br)cc12 [Compound 70A, 2-[(6-bromo-3-morpholinosulfonyl-4-quinolyl)amino]benzoic acid] | +++ | 13.7 | – |
| COCCCOc1cc2ncc(C(=O)N(C)C)c(Nc3ccccc3C(=O)O)c2cc1Br [Compound 57A, 2-[[6-bromo-3-(dimethylcarbamoyl)-7-(3-methoxypropoxy)-4-quinolyl]amino]benzoic acid] | +++ | 9.8 | – |
| CN(C)C(=O)c1cnc2ccc(OC(F)(F)F)cc2c1Nc1ccccc1C(=O)O [Compound 12A, 2-[[3-(dimethylcarbamoyl)-6-(trifluoromethoxy)-4-quinolyl]amino]benzoic acid] | + | 6.1 | – |
| O=c1c2cnc3ccc(OC(F)(F)F)cc3c2[nH]c2ccnn12 [Compound 30A, 6-(trifluoromethoxy)-14,15,16,17-tetrazatetracycloheptadeca-(6),1(7),2(8),3(15),4(9),5(16),10-heptaen-12-one] | 0 | 1.7 | – |
| CCOC(=O)c1cnc2ccc(OC3CCNCC3)cc2c1Nc1ccccc1C(=O)O [Compound 19A, 2-[[3-ethoxycarbonyl-6-(4-piperidyloxy)-4-quinolyl]amino]benzoic acid] | 0 | 0.6 | – |
| CCOC(=O)c1cnc2ccc(OC(F)(F)F)cc2c1Nc1ccccc1C(=O)O [Compound 32A, 2-[[3-ethoxycarbonyl-6-(trifluoromethoxy)-4-quinolyl]amino]benzoic acid] | +++ | 7.9 | – |
| O=C(O)c1cccn2c(=O)c3cnc4ccc(OC(F)(F)F)cc4c3nc12 [Compound 27A, 14-oxo-7-(trifluoromethoxy)-17,18,19-triazatetracyclooctadeca-(4),1(8),2(7),3(9),5(10),6(17),11,13(18)-octaene-8-carboxylic acid] | 0 | 2.8 | – |
| COCCCOc1cc2ncc(-c3ncco3)c(Nc3ccccc3C(=O)O)c2cc1OC [Compound 58A, 2-[[6-methoxy-7-(3-methoxypropoxy)-3-oxazol-2-yl-4-quinolyl]amino]benzoic acid] | + | 8.5 | – |
| CCOC(=O)c1cnc2ccc(-c3cccc4[nH]ccc34)cc2c1Nc1ccccc1C(=O)O [Compound 23A, 2-[[3-ethoxycarbonyl-6-(1H-indol-4-yl)-4-quinolyl]amino]benzoic acid] | +++ | 4.6 | – |
| NS(=O)(=O)c1cnc2ccc(Cl)cc2c1Nc1ccccc1C(=O)O [Compound 63A, 2-[(6-chloro-3-sulfamoyl-4-quinolyl)amino]benzoic acid] | +++ | 9.3 | – |
| N#Cc1cnc2ccc(OC(F)(F)F)cc2c1Nc1ccccc1C(=O)O [Compound 15A, 2-[[3-cyano-6-(trifluoromethoxy)-4-quinolyl]amino]benzoic acid] | – | 8.8 | – |

Other lines, results leading:

| Inhibition of PAPD5 RNA oligo adenylation (PAPD5 [1]) | ΔTm at 100 µM (PAPD5 [2]) [°C] | ΔTm 100 μM (PAPD5 [2]) | SMILES |
| --- | --- | --- | --- |
| +++ | 17.1 | – | O=C(O)c1c(O)cccc1Nc1c(S(=O)(=O)N2CCOCC2)cnc2ccc(Br)cc12 [Compound 78A, 2-[(6-bromo-3-morpholinosulfonyl-4-quinolyl)amino]-6-hydroxy-benzoic acid] |
| – | 6.8 | – | Nc1cccc(Nc2c(S(=O)(=O)N3CCOCC3)cnc3ccc(Br)cc23)c1C(=O)O [Compound 85A-BP, 2-amino-6-[(6-bromo-3-morpholinosulfonyl-4-quinolyl)amino]benzoic acid] |
| 0 | 0.3 | – | CCOC(=O)c1cnc2ccc(OC(F)(F)F)cc2c1Nc1ccccc1S(=O)(=O)NCC(F)(F)F [Compound 34A, ethyl 4-[2-(2,2,2-trifluoroethylsulfamoyl)anilino]-6-(trifluoromethoxy)quinoline-3-carboxylate] |
| 0 | 1.1 | – | COc1cccc(Nc2c(S(=O)(=O)N3CCOCC3)cnc3ccc(Br)cc23)c1C(=O)O [Compound 78A-INT, 2-[(6-bromo-3-morpholinosulfonyl-4-quinolyl)amino]-6-methoxy-benzoic acid] |
| – | – | fluorescent | O=C(O)c1c(Nc2c(S(=O)(=O)N3CCOCC3)cnc3ccc(Br)cc23)ccc(Br)c1O [Compound 78A-BR, 3-bromo-6-[(6-bromo-3-morpholinosulfonyl-4-quinolyl)amino]-2-hydroxy-benzoic acid] |
| – | 6.3 | – | NS(=O)(=O)c1cnc2ccc(-c3cccc4ncoc34)cc2c1Nc1ccccc1C(=O)O [Compound 64A, 2-[[6-(1,3-benzoxazol-7-yl)-3-sulfamoyl-4-quinolyl]amino]benzoic acid] |
| +++ | – | fluorescent | N#Cc1cnc2ccc(-c3cccc4ncccc34)cc2c1Nc1ccccc1C(=O)O [Compound 54A, 2-[[3-cyano-6-(5-quinolyl)-4-quinolyl]amino]benzoic acid] |
| – | 0 | – | COc1cccc(Nc2c(S(=O)(=O)N3CCOCC3)cnc3ccc(Cl)cc23)c1C(=O)O [Compound 79A-INT, 2-[(6-chloro-3-morpholinosulfonyl-4-quinolyl)amino]-6-methoxy-benzoic acid] |
| 0 | 0.4 | – | COCCCOc1cc2ncc(C#N)c(-n3ccc(=O)c(C(=O)O)c3)c2cc1OC [Compound 56A, 1-[3-cyano-6-methoxy-7-(3-methoxypropoxy)-4-quinolyl]-4-oxo-pyridine-3-carboxylic acid] |
| 0 | 1.8 | – | CCOC(=O)c1ncn2c1[nH]c(=O)c1cnc3ccc(OC(F)(F)F)cc3c12 [Compound 31A, ethyl 14-oxo-7-(trifluoromethoxy)-17,18,19,20-tetrazatetracycloheptadeca-1(7),2(8),3(9),4(18),5(19),10,12-heptaene-12-carboxylate] |
| – | 0 | – | CC(=O)Nc1cccc(Nc2c(S(=O)(=O)N3CCOCC3)cnc3ccc(Br)cc23)c1C(=O)O [Compound 85A, 2-acetamido-6-[(6-bromo-3-morpholinosulfonyl-4-quinolyl)amino]benzoic acid] |
| – | 0 | – | COc1cccc(Nc2c(S(=O)(=O)N3CCN(C(=O)OCc4ccccc4)CC3)cnc3ccc(Br)cc23)c1C(=O)O [Compound 93A-INT, 2-[[3-(4-benzyloxycarbonylpiperazin-1-yl)sulfonyl-6-bromo-4-quinolyl]amino]-6-methoxy-benzoic acid] |
